Experimental data published in ChEMBL document CHEMBL1201862, “PubChem BioAssay data set” (2004).
The source made the active and inactive calls.

What was measured:
[1] = viability of PTEN-deleted HCT116 cells – cell-based, HCT116 PTEN knockout, dose response (AID 1047); assay type: functional;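 also: HCT116 colon tumor cells with PTEN knocked out; cells exposed to compound for 60 hours before readout; potency for loss of cell viability measured by luminescence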
[2] = viability of HCT116 lacking mutant beta-catenin – cell-based, human colon tumor, dose response (AID 1045); assay type: functional;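 also: HCT116 colon tumor cells with beta catenin knocked out; cells exposed to compound for 60 hours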
[3] = Luminescence Cell-Based Dose Retest to Confirm Inhibitors of Cancer Stem Cells. [Related pubchem assays (depositor defined):AID2717, AID2721]; assay type: functional; details: Homo sapiens
[4] = target: T1, Probable nicotinate-nucleotide adenylyltransferase (Staphylococcus aureus (strain N315), UniProt P65502); assay type: functional, Staphylococcus aureus subsp. aureus N315;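 as to IC50 Mean: confirmatory dose-response retesting of NadD inhibitor hits first found in an ultra-high-throughput screen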
[5] = target: T1, Probable nicotinate-nucleotide adenylyltransferase; assay type: functional, Staphylococcus aureus subsp. aureus N315; details: read-out: IC50_Mean
[6] = target: T2, Histone-lysine N-methyltransferase NSD2 (Homo sapiens, UniProt O96028); assay type: biochemical
T2 sequence (O96028 whole entry): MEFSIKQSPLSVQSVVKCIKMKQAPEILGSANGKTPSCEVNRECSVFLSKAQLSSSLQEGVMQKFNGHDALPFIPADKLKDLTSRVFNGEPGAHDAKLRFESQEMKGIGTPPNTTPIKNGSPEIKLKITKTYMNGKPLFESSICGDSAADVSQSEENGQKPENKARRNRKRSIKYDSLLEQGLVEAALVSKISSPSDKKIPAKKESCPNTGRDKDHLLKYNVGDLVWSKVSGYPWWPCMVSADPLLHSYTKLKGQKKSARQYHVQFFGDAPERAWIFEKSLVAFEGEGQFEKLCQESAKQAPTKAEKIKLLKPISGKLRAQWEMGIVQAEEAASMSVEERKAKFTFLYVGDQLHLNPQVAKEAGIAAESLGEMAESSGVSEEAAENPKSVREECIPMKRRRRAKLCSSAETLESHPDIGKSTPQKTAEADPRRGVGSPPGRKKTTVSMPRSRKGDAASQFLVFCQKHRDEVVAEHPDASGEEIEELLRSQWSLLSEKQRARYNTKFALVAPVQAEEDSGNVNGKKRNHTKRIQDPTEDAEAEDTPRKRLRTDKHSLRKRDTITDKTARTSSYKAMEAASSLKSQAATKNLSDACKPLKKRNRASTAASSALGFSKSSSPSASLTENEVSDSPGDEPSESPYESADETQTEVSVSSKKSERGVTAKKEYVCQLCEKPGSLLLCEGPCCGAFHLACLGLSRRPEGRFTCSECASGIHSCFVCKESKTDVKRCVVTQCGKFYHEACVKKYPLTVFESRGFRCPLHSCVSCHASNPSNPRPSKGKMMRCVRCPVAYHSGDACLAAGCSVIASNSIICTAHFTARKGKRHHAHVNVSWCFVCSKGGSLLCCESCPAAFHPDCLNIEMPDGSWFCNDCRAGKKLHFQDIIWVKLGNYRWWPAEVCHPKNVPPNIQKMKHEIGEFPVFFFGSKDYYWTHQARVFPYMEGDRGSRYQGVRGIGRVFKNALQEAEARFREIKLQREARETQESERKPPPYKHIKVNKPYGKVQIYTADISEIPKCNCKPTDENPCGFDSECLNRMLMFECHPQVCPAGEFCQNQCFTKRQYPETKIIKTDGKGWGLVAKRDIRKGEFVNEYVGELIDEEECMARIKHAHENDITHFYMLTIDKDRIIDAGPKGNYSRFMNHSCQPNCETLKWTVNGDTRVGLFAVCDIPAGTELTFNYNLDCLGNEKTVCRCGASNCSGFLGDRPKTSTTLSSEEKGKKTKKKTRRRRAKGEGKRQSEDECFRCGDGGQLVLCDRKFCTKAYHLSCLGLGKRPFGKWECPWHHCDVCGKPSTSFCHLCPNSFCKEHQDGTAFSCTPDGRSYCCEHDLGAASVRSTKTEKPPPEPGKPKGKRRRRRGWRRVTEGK

[7] = target: G-protein coupled receptor 35 (Homo sapiens, UniProt Q9HC97); test: inhibition of zaprinast-stimulated GPR35 beta-arrestin translocation – imaging, U2OS, beta-arrestin-GFP, zaprinast agonist, primary screen (AID 2058); assay type: functional;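 also: antagonist potency meaning inhibition of agonist-induced arrestin redistribution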
[8] = target: T3, Replicative DNA helicase DnaB (Mycobacterium tuberculosis, UniProt P9WMR3); test: DnaB intein splicing inhibitors, dose response, biochemical, cell-free fluorescence (AID 449749); assay type: functional
T3 sequence (P9WMR3 whole entry): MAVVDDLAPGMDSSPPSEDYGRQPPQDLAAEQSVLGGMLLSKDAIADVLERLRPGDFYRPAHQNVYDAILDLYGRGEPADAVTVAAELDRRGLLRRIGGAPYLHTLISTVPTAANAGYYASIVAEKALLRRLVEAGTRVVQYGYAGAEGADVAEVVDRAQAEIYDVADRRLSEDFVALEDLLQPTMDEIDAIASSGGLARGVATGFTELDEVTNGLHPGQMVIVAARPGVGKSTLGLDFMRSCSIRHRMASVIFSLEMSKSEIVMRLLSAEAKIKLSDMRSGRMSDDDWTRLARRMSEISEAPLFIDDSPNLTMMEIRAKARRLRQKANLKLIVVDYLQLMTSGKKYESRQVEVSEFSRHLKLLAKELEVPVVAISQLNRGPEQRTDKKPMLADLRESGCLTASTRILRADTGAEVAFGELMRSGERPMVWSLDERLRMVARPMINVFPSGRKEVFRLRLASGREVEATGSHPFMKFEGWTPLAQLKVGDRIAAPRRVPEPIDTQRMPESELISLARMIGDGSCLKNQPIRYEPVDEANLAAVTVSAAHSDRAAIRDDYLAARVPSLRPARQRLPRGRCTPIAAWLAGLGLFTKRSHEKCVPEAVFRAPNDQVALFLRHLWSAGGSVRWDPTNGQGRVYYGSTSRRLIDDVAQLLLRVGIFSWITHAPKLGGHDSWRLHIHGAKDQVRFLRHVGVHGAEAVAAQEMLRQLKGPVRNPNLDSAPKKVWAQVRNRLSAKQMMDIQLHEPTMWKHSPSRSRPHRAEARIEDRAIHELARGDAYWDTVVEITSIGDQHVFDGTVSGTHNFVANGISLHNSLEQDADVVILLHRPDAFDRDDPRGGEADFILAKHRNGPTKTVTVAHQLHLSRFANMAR

[9] = target: T4, Protein RecA (Mycobacterium tuberculosis, UniProt P9WHJ3); test: Fluorescence Cell-Free Homogeneous Dose Retest to Identify Inhibitors of RecA-Intein Splicing Activity. [Related pubchem assays (depositor defined):AID2097, AID2223, AID489010, AID492950]; assay type: functional
T4 sequence (P9WHJ3 whole entry): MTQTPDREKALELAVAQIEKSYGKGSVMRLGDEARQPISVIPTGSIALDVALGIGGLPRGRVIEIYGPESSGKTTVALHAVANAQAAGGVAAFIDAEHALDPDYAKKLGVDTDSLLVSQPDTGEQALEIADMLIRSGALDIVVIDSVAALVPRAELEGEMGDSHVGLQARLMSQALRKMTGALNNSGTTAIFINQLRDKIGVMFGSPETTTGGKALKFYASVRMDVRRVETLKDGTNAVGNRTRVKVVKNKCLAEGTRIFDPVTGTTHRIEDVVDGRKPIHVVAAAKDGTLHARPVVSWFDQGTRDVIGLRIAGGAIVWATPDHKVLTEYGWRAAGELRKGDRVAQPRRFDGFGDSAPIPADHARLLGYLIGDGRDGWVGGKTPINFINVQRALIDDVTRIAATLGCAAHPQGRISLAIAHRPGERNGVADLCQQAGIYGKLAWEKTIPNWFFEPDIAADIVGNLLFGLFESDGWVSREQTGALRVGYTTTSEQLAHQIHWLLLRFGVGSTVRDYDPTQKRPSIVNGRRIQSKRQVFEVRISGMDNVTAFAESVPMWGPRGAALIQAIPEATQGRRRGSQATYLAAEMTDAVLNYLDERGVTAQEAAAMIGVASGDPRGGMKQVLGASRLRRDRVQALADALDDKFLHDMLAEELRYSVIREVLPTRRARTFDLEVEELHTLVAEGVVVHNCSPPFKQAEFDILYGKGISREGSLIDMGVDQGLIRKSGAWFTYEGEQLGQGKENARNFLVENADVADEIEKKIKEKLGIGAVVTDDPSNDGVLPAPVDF

[10] = target: T5, Protein skinhead-1 (Caenorhabditis elegans, UniProt P34707); assay type: functional
T5 sequence (P34707 whole entry): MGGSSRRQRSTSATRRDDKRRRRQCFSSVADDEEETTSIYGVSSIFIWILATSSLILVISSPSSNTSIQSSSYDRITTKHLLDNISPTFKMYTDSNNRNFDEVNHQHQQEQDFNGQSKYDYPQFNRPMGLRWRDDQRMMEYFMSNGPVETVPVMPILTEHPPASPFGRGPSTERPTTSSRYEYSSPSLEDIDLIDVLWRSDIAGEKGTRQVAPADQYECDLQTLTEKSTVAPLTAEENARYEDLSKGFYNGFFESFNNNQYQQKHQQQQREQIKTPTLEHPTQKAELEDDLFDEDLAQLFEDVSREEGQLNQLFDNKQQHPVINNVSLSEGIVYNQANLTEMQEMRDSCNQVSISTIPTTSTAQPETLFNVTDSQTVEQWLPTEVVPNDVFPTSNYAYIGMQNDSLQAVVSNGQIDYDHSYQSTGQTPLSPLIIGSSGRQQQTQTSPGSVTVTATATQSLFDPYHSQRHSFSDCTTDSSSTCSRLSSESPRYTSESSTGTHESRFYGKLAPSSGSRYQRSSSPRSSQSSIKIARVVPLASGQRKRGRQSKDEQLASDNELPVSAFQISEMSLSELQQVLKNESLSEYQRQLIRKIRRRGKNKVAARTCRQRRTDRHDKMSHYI

[11] = A549 cell cytotoxicity, dose response, cytotoxicity control, plate reader, cherry-pick, antagonist series (AID 743412); assay type: functional, cell-based
[12] = toxicity toward HepG2 liver cells – cell-based, plate reader, cherry-pick, antagonist series, cytotoxicity control, dose response (AID 743416); assay type: functional
[13] = blockers of bursicon-stimulated LGR2 cAMP reporter – cell-based, HEK293, CRE-luciferase reporter, cherry pick, set 2, dose response (AID 743343); assay type: functional;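 also: transfected cells were stimulated with diluted bursicon conditioned medium after compound addition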
[14] = blockade of melanocortin 4 receptor signaling – cell-based, plate reader, cherry pick, counter-screen for LGR2 antagonist project, dose response (AID 743444); assay type: functional;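 also: transfected HEK 293 cells stimulated with alpha-MSH peptide; potency of inhibitors of the alpha-MSH evoked signal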
[15] = viability loss in HEK293 cells – cell-based, plate reader, cherry-picked samples, cytotoxicity control, dose response (AID 743446); assay type: functional
[16] = intracellular Trypanosoma cruzi inhibitors in host cells – cell-based, plate reader, cherry-pick samples, set 3, dose response (AID 651818); assay type: functional;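 also: compounds incubated with infected cells for about four days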
[17] = target: Paired box protein Pax-8 (Homo sapiens, UniProt Q06710); test: PAX8 transcriptional activity inhibition in RMG-I – RMG-I cells, luciferase, cherry-pick, dose response (AID 687027); assay type: functional, cell-based;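 also: luciferase reporter driven by Pax8 target thyroperoxidase promoter measured by SteadyGlo luminescence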
[18] = OVCAR-3 cell viability loss – plate reader, dry powder samples, PAX8 inhibitor project, dose response (AID 743044); assay type: functional, cell-based
[19] = OVCAR8 cell viability loss – plate reader, dry powder samples, PAX8 project, dose response (AID 743197); assay type: functional, cell-based; details: OVCAR-8
[20] = general mammalian cell viability loss – inhibitor set, cherry-pick, set 2, cytotoxicity control for miR-122 modulator project, dose response (AID 720697); assay type: functional, cell-based

Chain of Paired box protein Pax-8 (Q06710 whole entry): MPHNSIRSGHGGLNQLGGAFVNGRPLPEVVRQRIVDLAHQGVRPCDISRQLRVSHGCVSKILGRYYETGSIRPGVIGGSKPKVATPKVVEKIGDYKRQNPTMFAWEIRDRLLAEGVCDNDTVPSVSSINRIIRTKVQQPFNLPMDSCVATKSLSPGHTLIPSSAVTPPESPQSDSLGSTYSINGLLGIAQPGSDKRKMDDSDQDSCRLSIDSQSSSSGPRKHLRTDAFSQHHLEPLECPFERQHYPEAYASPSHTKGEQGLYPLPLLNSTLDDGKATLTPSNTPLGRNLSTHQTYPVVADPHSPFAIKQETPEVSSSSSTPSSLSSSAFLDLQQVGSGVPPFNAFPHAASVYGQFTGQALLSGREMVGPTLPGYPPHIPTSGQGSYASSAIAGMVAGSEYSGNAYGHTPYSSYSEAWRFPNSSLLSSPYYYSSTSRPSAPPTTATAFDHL
T1 sequence (P65502 whole entry): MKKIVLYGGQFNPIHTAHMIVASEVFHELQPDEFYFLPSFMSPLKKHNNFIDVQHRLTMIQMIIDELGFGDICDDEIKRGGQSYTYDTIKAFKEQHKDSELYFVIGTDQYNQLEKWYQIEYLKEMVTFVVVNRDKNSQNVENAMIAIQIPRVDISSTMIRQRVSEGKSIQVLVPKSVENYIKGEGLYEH
Chain of G-protein coupled receptor 35 (Q9HC97 whole entry): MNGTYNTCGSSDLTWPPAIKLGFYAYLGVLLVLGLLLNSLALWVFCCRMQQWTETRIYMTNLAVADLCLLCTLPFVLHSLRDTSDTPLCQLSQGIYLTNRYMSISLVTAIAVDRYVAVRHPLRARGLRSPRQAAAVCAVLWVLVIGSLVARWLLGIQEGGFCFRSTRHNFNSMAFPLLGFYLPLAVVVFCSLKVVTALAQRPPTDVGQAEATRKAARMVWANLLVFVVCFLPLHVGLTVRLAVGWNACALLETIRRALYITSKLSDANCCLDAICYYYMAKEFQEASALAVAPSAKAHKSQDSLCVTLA

In the case of `NS(=O)(=O)c1ccc(NC(=O)COC(=O)c2c3c(nc4ccccc24)/C(=C\c2ccc4c(c2)OCO4)CCC3)cc1`, the EC50 [1] is reported as 17.5 µM (active), the EC50 [2] is reported as 18.3 µM (active) and the AC50 [3] is reported as 3.72 µM (active). The IC50 [4] was 11.9 µM (active) and the IC50 [5] was 21.1 µM (active).
In the case of `O=C(Nc1ccccn1)c1ccc2c(=O)n3c(nc2c1)CCCCC3`, the AC50 [6] is reported as 7.7 µM (active).
In the case of `O=c1c(Cl)c(Cl)cnn1Cc1ccccc1Cl`, the IC50 [7] is reported as 2.16 µM (active), the AC50 [8] is reported as 15.5 µM (active) and the EC50 [9] is reported as 7.78 µM (active).
With `CN(C)CC(O)c1ccc(C=Cc2ccc(Cl)cc2)cc1` (stereo not drawn) the IC50 [10] was 58.1 µM (inactive), the AC50 [11] was 8.82 µM (active) and the AC50 [12] was 8.24 µM (active). The AC50 [13] was 14.6 µM (active), the AC50 [14] was 12.7 µM (active) and the AC50 [15] was 14.3 µM (active).
For `Cc1cccc(C)c1-n1nnnc1C(CCc1ccccc1)N1CCC(n2c(O)nc3ccccc32)CC1` (stereo not drawn), the AC50 [11] was 16.6 µM (active), the AC50 [12] was 2.71 µM (active) and the AC50 [13] was 9.92 µM (active). For the same compound, the AC50 [14] was 8.26 µM (active) and the AC50 [15] was 6.12 µM (active).
With `C[C@H]1CN([C@@H](C)CO)C(=O)Cc2cc(NC(=O)NC3CCCCC3)ccc2O[C@H]1CN(C)Cc1ccc(-c2ccccc2)cc1` the AC50 [16] was 2.67 µM (active), the AC50 [17] was 5.8 µM (active) and the AC50 [18] was 54.3 µM (active). The AC50 [19] was > 70 µM (inactive).
In the case of `C[C@H](CO)N1C[C@H](C)[C@@H](CN(C)Cc2ccc(Cl)c(Cl)c2)Oc2ccc(NC(=O)Nc3ccc(F)cc3)cc2CC1=O`, the AC50 [17] is reported as 13.2 µM (active) and the AC50 [19] is reported as 54.4 µM (active).
With `C[C@@H]1CN([C@H](C)CO)S(=O)(=O)c2ccc(-c3ccc(C(=O)N(C)C)cc3)cc2O[C@@H]1CN(C)C(=O)C1CCC1` the AC50 [20] was 0.493 µM (active).
In the case of `CN(C[C@H]1N[C@@H](CO)[C@@H]1c1ccc(C2=CCCC2)cc1)C(=O)c1ccccn1`, the AC50 [20] is reported as 2.46 µM (active).
